Measurements published in the supplement of paper PMC11061612.

Key:
Experiment in all cases: Bliss excess, mean over the matrix (fraction); higher = more synergy
[1] = system: NCI-H1048 (Small Cell Lung Carcinoma)
How it was run: (§1)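 Cell lines in DMEM/F12 or RPMI with 10% FBS were plated in 1536-well plates, held 24 hours at 37°C, 5% CO2, then given two-drug dose matrices for 72 hours (DMSO typically 0.2%). Viability was read by CellTiter-Glo 2.0 luminescence and scaled as inhibition from 0 (vehicle wells) to 1 (blank wells). Combination Emax is the second-highest inhibition in the matrix; Bliss excess is observed combination effect minus expected EA + EB − EA·EB, EA and EB being single-agent effects.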

[2] = system: NCI-H1975 (Lung Adenocarcinoma)
How it was run: as §1

[3] = system: IGROV-1 (Ovarian Carcinoma)
How it was run: as §1

[4] = system: JURL-MK1 (Chronic Myelogenous Leukemia)
How it was run: as §1

A375 (Melanoma) = system: A375 (Melanoma)
How it was run: as §1

[5] = system: KNS-62 (Squamous Cell Lung Carcinoma)
How it was run: as §1

[6] = system: MRK-nu-1 (Breast Carcinoma)
How it was run: as §1

[7] = system: GRANTA-519 (B-Cell Non-Hodgkin's Lymphoma)
How it was run: as §1

[8] = system: TOV-21G (Ovarian Carcinoma)
How it was run: as §1

[9] = system: NCI-H2009 (Lung Adenocarcinoma)
How it was run: as §1

[10] = system: L-363 (Plasma Cell Myeloma)
How it was run: as §1

[11] = system: NCI-H1648 (Lung Adenocarcinoma)
How it was run: as §1

SK-MEL-24 (Melanoma) = system: SK-MEL-24 (Melanoma)
How it was run: as §1

[12] = system: HT-3 (Cervical Carcinoma)
How it was run: as §1

[13] = system: BT-474 (Breast Carcinoma)
How it was run: as §1

[14] = system: JJN-3 (Plasma Cell Myeloma)
How it was run: as §1

[15] = system: CAL-85-1 (Breast Carcinoma)
How it was run: as §1

[16] = system: TK (B-Cell Non-Hodgkin's Lymphoma)
How it was run: as §1

[17] = system: C2BBe1 (Colorectal Carcinoma)
How it was run: as §1

| Compound | Bliss excess [1] | Bliss excess [2] | Bliss excess [3] | Bliss excess [4] | Bliss excess (A375 (Melanoma)) | Bliss excess [5] | Bliss excess [6] | Bliss excess [7] | Bliss excess [8] | Bliss excess [9] | Bliss excess [10] | Bliss excess [11] | Bliss excess (SK-MEL-24 (Melanoma)) | Bliss excess [12] | Bliss excess [13] | Bliss excess [14] | Bliss excess [15] | Bliss excess [16] | Bliss excess [17] |
| --- | --- | --- | --- | --- | --- | --- | --- | --- | --- | --- | --- | --- | --- | --- | --- | --- | --- | --- | --- |
| CCN(CCO)CCCOc1ccc2c(Nc3cc(CC(=O)Nc4cccc(F)c4)[nH]n3)ncnc2c1 [AZD2811] + C=CCn1c(=O)c2cnc(Nc3ccc(N4CCN(C)CC4)cc3)nc2n1-c1cccc(C(C)(C)O)n1 [AZD1775] (first compound max 1 µM, partner max 1 µM) | 0.0662 | 0.0001 | -0.0034 | -0.0001 | 0.0143 | -0.0339 | 0.0147 | -0.013 | 0.0317 | 0.0477 | -0.0312 | -0.0388 | -0.0378 | -0.0176 | -0.0442 | -0.0233 | -0.0258 | 0.0069 | 0.024 |
| CC1(C)CCC(CN2CCN(c3ccc(C(=O)NS(=O)(=O)c4ccc(NCC5CCOCC5)c([N+](=O)[O-])c4)c(Oc4cnc5[nH]ccc5c4)c3)CC2)=C(c2ccc(Cl)cc2)C1 [Venetoclax] + C[C@@H](Nc1cc(F)cc(F)c1)c1cc(C(=O)N(C)C)cc2c(=O)cc(N3CCOCC3)oc12 [AZD8186] (first compound max 1 µM, 7x7, partner max 3 µM) | 0.018 | -0.0203 | 0.0084 | -0.0201 | -0.0326 | -0.0545 | -0.0165 | 0.0281 | -0.0271 | -0.0281 | -0.001 | -0.0603 | -0.0585 | -0.0359 | -0.055 | -0.0092 | -0.055 | -0.0454 | -0.135 |
| CC1(C)CCC(CN2CCN(c3ccc(C(=O)NS(=O)(=O)c4ccc(NCC5CCOCC5)c([N+](=O)[O-])c4)c(Oc4cnc5[nH]ccc5c4)c3)CC2)=C(c2ccc(Cl)cc2)C1 [Venetoclax] + C[C@@H]1COCCN1C2=NC(=NC(=C2)C3(CC3)[S@](=N)(=O)C)C4=C5C=CNC5=NC=C4 [AZD6738] (first compound max 1 µM, 7x7, partner max 10 µM) | 0.0276 | -0.0391 | -0.0075 | 0.0005 | -0.0308 | -0.121 | -0.0003 | 0.0342 | -0.0256 | -0.0357 | 0.0331 | -0.0262 | -0.0429 | -0.0419 | -0.0265 | 0.067 | -0.0195 | 0.0223 | -0.0092 |
| CC1(C)CCC(CN2CCN(c3ccc(C(=O)NS(=O)(=O)c4ccc(NCC5CCOCC5)c([N+](=O)[O-])c4)c(Oc4cnc5[nH]ccc5c4)c3)CC2)=C(c2ccc(Cl)cc2)C1 [Venetoclax] + Cc1cc2ncnn2cc1Nc1ncc2c(n1)n(C1CCOCC1)c(=O)n2C [AZD7648] (first compound max 1 µM, 7x7, partner max 10 µM) | 0.0067 | -0.0114 | -0.0589 | -0.0068 | -0.0301 | -0.0255 | 0.0037 | 0.0007 | -0.002 | -0.053 | 0.0281 | -0.0431 | -0.0553 | -0.016 | -0.0622 | 0.0741 | -0.0251 | 0.0006 | -0.0132 |
| CC1(C)CCC(CN2CCN(c3ccc(C(=O)NS(=O)(=O)c4ccc(NCC5CCOCC5)c([N+](=O)[O-])c4)c(Oc4cnc5[nH]ccc5c4)c3)CC2)=C(c2ccc(Cl)cc2)C1 [Venetoclax] + C=CCn1c(=O)c2cnc(Nc3ccc(N4CCN(C)CC4)cc3)nc2n1-c1cccc(C(C)(C)O)n1 [AZD1775] (first compound max 1 µM, partner max 1 µM) | 0.0212 | -0.0143 | -0.0952 | -0.0214 | -0.0142 | -0.0106 | -0.0341 | 0.0734 | -0.0261 | -0.0212 | 0.0933 | -0.0451 | -0.0473 | -0.0049 | -0.0668 | -0.0187 | -0.0334 | 0.0168 | 0.0124 |
| CC1(C)CCC(CN2CCN(c3ccc(C(=O)NS(=O)(=O)c4ccc(NCC5CCOCC5)c([N+](=O)[O-])c4)c(Oc4cnc5[nH]ccc5c4)c3)CC2)=C(c2ccc(Cl)cc2)C1 [Venetoclax] + Cn1cnc2c(F)c(Nc3ccc(Br)cc3Cl)c(C(=O)NOCCO)cc21 [Selumetinib] (first compound max 1 µM, 7x7, partner max 3 µM) | -0.0067 | -0.0631 | -0.0068 | -0.0249 | -0.0437 | -0.047 | -0.0139 | -0.03 | 0.0133 | -0.024 | 0.0023 | -0.0379 | -0.0001 | -0.0218 | -0.0419 | 0.0473 | -0.0368 | -0.0251 | -0.102 |
